Assay results as given in patent EP4818177A1, “TRICYCLIC DERIVATIVE INHIBITOR, AND PREPARATION METHOD AND USE THEREFOR” (Shanghai Hansoh Biomedical Co., Ltd., priority 2023, dated 2025).

molecular target: T1, PRMT5/MEP50-MTA protein complex (Homo sapiens, UniProt O14744); test: Thermal shift assay: change in melting temperature of the PRMT5/MEP50-MTA protein complex; format: binding; conditions: compound 8 µM, PRMT5/MEP50 2 µM, MTA 2 µM; Tm minus DMSO vehicle control
T1 construct: purchased Viva Biotech
T1 sequence (O14744 whole entry): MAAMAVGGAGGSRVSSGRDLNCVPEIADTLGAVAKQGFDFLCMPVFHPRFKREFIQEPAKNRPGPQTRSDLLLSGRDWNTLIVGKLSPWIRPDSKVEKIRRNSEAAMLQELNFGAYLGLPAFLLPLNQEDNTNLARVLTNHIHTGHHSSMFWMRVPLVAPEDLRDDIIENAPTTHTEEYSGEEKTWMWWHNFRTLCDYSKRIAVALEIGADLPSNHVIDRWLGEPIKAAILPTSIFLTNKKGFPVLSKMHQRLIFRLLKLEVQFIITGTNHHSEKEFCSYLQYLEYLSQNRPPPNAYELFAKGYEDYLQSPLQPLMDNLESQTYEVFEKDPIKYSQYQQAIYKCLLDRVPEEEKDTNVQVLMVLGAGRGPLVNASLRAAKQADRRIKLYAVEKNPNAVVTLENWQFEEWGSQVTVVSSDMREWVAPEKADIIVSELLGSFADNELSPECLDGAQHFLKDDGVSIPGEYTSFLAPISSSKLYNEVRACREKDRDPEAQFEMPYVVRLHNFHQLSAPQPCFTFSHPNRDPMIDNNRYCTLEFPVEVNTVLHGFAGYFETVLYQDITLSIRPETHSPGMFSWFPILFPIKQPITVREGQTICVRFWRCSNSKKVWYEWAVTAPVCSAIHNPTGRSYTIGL
T1 sequence (Q9BQA1 whole entry partner): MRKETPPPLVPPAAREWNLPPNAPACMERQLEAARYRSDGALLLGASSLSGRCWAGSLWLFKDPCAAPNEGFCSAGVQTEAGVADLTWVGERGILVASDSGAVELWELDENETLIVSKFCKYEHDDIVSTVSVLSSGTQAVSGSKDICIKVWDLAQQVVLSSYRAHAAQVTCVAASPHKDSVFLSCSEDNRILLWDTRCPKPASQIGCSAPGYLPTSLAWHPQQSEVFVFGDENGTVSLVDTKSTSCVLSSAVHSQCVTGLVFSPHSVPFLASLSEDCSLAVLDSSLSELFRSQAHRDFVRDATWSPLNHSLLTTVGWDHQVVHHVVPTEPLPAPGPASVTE
Excerpt: Test Example 1: Determination of the ability of the compounds of the present invention to improve the thermal stability (melting temperature) of the PRMT5/MEP50-MTA protein complex.
1. Experimental objective: The objective of this test example is to determine the ability of the compound to improve the thermal stability of the PRMT5/MEP50-MTA protein complex, resulting in an increase in the protein melting temperature. 2. Experimental instruments: Quantitative PCR instrument (Quantstudio6 Flex) was purchased from Life Technologies; pipettes were purchased from Eppendorf or Rainin. 3. Experimental reagents and consumables: PRMT5/MEP50 protein was prepared by Viva Biotech; HEPES was purchased from Thermo Fisher Scientific (Cat. No. 15630080); DTT was purchased from Sigma (Cat. No. 43816-10ml); sodium chloride was purchased from Invitrogen (Cat. No. AM9760G); Protein Thermal Shift™ Dye Kit was purchased from Thermo Fisher Scientific (Cat. No. 4461146); methylthioadenosine (MTA) was purchased from Sigma (Cat. No. D5011). 4. Experimental methods: In this experiment, the thermal shift method was used to measure the change in the melting temperature (Tm) of the PRMT5/MEP50-MTA protein complex before and after compound binding, thereby characterising the ability of the compound to improve the thermal stability of the PRMT5/MEP50-MTA protein complex. A solution containing 50 mM HEPES, 10 mM DTT, 2 µM MTA, SYPRO Orange and 250 mM NaCl was prepared as the experimental buffer. Human PRMT5/MEP50 protein was added to a final concentration of 2 µM, and the mixture was incubated at room temperature for 30 minutes. The above reaction mixture was aliquoted into 8-strip PCR tubes at 19.5 µL per tube. Then 0.5 µL of test compound or DMSO was added to each tube, providing a total reaction volume of 20 µL and a final compound concentration of 8 µM. 2.5% DMSO was set as the vehicle control. After incubation at room temperature for 10 minutes, the PCR tubes were placed in a PCR instrument, and the melt curve function was selected to measure the melting temperature of the PRMT5/MEP50-MTA protein complex in different treatment groups (heated from 25°C to 95°C, 0.03°C/s). 5. Experimental data processing method: The experimental data files from the PCR instrument were imported into the thermal shift software to obtain the melting temperature (Tm) for each treatment group.

First: CNN(C(=O)c1cc2c3c(c(N)nc2cc1F)COC3)C1COCc2nc(C(F)(F)F)ccc21 (racemic) [Example 306]
Second: CNN(C(=O)c1cc2c3c(c(N)nc2cn1)COC3)C1COCc2nc(C(F)(F)F)ccc21 (centres unmarked) [Example 286, 4-Amino-N'-methyl-N-(2-trifluoromethyl-5,8-dihydro-6H-pyrano[3,4-b]pyridin-5-yl)-1,3-dihydrofuro[3,4-c] [1,7]naphthyridine-8-carbohydrazide]
The ΔTm at 8 µM of the first is higher: 12.7 °C for the first, 10.5 °C for the second.

First: CNN(C(=O)c1cc2c(cn1)nc(N)c1cncn12)C1COc2cc(S(F)(F)(F)(F)F)ccc21 (racemic) [Example 385, 4-Amino-N'-methyl-N-(6-(pentafluoro-6-sulphanyl)-2,3-dihydrobenzofuran-3-yl)imidazo [1,5-a] pyrido [3,4-e] pyrazine-8-carbohydrazide]
Second: CNN(C(=O)c1ccc2nc(N)c3cnn(C)c3c2c1)C1COc2cc(S(F)(F)(F)(F)F)ccc21 (racemic) [Example 450, 4-Amino-N',1-dimethyl-N-(6-(pentafluoro-6-sulphanyl)-2,3-dihydrobenzofuran-3-yl)-1H-pyrazolo[4,3-c]quinoline-8-carbohydrazide]
The ΔTm at 8 µM of the first is lower: 11.6 °C for the first, 12 °C for the second.

Going from CNN(C(=O)c1cc2c(cn1)nc(N)c1cncn12)C1COc2cc(S(F)(F)(F)(F)F)ccc21 (single isomer, unassigned) [Example 385-P1] to CNN(C(=O)c1cc2c(cc1C)nc(N)c1cncn12)C1COCc2nc(C(F)(F)F)ccc21 (centres unmarked) [Example 278, 4-Amino-N',7-dimethyl-N-(2-(trifluoromethyl)-5,8-dihydro-6H-pyrano[3,4-b]pyridin-5-yl)imidazo[1,5-a]quinoxaline-8-carbohydrazide], the ΔTm at 8 µM falls from 14 °C to 12.7 °C.

Going from CN(C(=O)c1ccc2nc(N)c3cnn(C)c3c2c1)[C@@H]1COCc2c1ccn1cc(Br)nc21 [Example 37-P1, (S)-4-amino-N-(2-bromo-7,10-dihydro-8H-imidazo[1,2-a]pyrano[3,4-c]pyridin-7-yl)-N,1-dimethyl-1H-pyrazolo[4,3-c]quinoline-8-carboxamide] to CN(C(=O)c1ccc2nc(N)c3cnn(C)c3c2c1)C1COCc2c1ccc1nc(C(F)(F)F)cn21 (centres unmarked) [Example 81, 4-Amino-N,1-dimethyl-N-(8-(trifluoromethyl)-3,4-dihydro-1H-imidazo[1,2-a]pyrano[4,3-e]pyridin-4-yl)-1H-pyrazolo[4,3-c]quinoline-8-carboxamide], the ΔTm at 8 µM falls from 10.5 °C to 10.4 °C.

Cc1cc2nc(N)c3cncn3c2cc1C(=O)N(C)C1COCc2c1ccn1cc(C(F)(F)F)nc21 (centres unmarked) [Example 39, 4-Amino-N,7-dimethyl-N-(2-(trifluoromethyl)-7,10-dihydro-8H-imidazo[1,2-a]pyrano[3,4-c]pyridin-7-yl)imidazo[1,5-a]quinoxaline-8-carboxamide] and Cc1cc2nc(N)c3cncn3c2cc1C(=O)N(C)C1COCc2c1ccc1nc(C(F)(F)F)cn21 (centres unmarked) [Example 48, 4-Amino-N,7-dimethyl-N-(8-(trifluoromethyl)-3,4-dihydro-1H-imidazo[1,2-a]pyrano[4,3-e]pyridin-4-yl)imidazo[1,5-a]quinoxaline-8-carboxamide] are the same in ΔTm at 8 µM: 11.7 °C for the first, 11.7 °C for the second.

Going from CN(C(=O)c1ccc2nc(N)c3cnn(C)c3c2c1)C1COCc2c1ccc1cc(C(F)(F)F)cnc21 (centres unmarked) [Example 68, 4-Amino-N,1-dimethyl-N-(3-(trifluoromethyl)-7,10-dihydro-8H-pyrano[4,3-h]quinolin-7-yl)-1H-pyrazolo[4,3-c]quinoline-8-carboxamide] to CNN(C(=O)c1cc2c3c(c(N)nc2cn1)COC3)C1COCc2cc(C(F)(F)F)ccc21 (centres unmarked) [Example 298, 4-Amino-N'-methyl-N-(7-(trifluoromethyl)isochroman-4-yl)-1,3-dihydrofuro[3,4-c][1,7]diazanaphthalene-8-carbohydrazide], the ΔTm at 8 µM rises from 10.4 °C to 11.4 °C.

First: Cc1cc2nc(N)c3cncn3c2cc1C(=O)N(C1CC(=C(F)F)C1)C1COCc2c1ccn1c(C(F)(F)F)cnc21 (centres unmarked) [Example 144, 4-Amino-N-[3-(difluoromethylene)cyclobutyl]-7-methyl-N-[5-(trifluoromethyl)-12-oxa-3,6-diazatricyclo[7.4.0.02,6]trideca-1(9),2,4,7-tetraen-10-yl]imidazo[1,5-a]quinoxaline-8-carboxamide]
Second: CNN(C(=O)c1cc2c(cc1C)nc(N)c1cncn12)C1COCc2c1ccn1c(C(F)(F)F)cnc21 (centres unmarked) [Example 281, 4-Amino-N',7-dimethyl-N-(3-(trifluoromethyl)-7,10-dihydro-8H-imidazo[1,2-a]pyrano[3,4-c]pyridin-7-yl)imidazo[1,5-a]quinoxaline-8-carbohydrazide]
The ΔTm at 8 µM of the first is lower: 10.2 °C for the first, 12.7 °C for the second.

First: Cc1cc2nc(N)c3cncn3c2cc1C(=O)N(C)C1COCc2c1ccn1c(N=S(C)(C)=O)cnc21 (centres unmarked) [Example 146, 4-Amino-N-(3-((dimethyl(carbonyl)-16-sulphanylidene)amino)-7,10-dihydro-8H-imidazo[1,2-a]pyrano[3,4-c]pyridin-7-yl)-N,7-dimethylimidazo[1,5-a]quinoxaline-8-carboxamide]
Second: CN(C(=O)c1cc2c(cc1F)nc(N)c1cncn12)C1COCc2c1ccn1c(C(F)=C3CCCCC3)cnc21 (centres unmarked) [Example 240, 4-Amino-N-(3-(cyclohexylidenefluoromethyl)-7,10-dihydro-8H-imidazo[1,2-a]pyrano[3,4-c]pyridin-7-yl)-7-fluoro-N-methylimidazo[1,5-a]quinoxaline-8-carboxamide]
The ΔTm at 8 µM of the first is lower: 10.2 °C for the first, 10.8 °C for the second.

CN(C(=O)c1cc2c(cc1F)nc(N)c1cncn12)C1COCc2c1ccn1c(C(F)(F)F)c(C(=O)N3CC(=C(F)F)C3)nc21 (centres unmarked) [Example 234, 4-Amino-N-(2-(3-(difluoromethylene)azetidine-1-carbonyl)-3-(trifluoromethyl)-7,10-dihydro-8H-imidazo[1,2-a]pyrano[3,4-c]pyridin-7-yl)-7-fluoro-N-methylimidazo[1,5-a]quinoxaline-8-carboxamide] and Nc1nc2cc(F)c(C(=O)N(N)C3COCc4nc(C(F)(F)F)ccc43)cc2n2cncc12 (centres unmarked) [Example 280, 4-Amino-7-fluoro-N-(2-(trifluoromethyl)-5,8-dihydro-6H-pyrano[3,4-b]pyridin-5-yl)imidazo[1,5-a]quinoxaline-8-carbohydrazide] are the same in ΔTm at 8 µM: 10.9 °C for the first, 10.9 °C for the second.

Going from CNN(C(=O)c1cc2c(cc1C)nc(N)c1cncn12)[C@@H]1COCc2nc(C(F)(F)F)ccc21 [Example 278-P1, (S)-4-amino-N',7-dimethyl-N-(2-(trifluoromethyl)-5,8-dihydro-6H-pyrano[3,4-b]pyridin-5-yl)imidazo[1,5-a]quinoxaline-8-carbohydrazide] to [2H]C([2H])([2H])NN(C(=O)c1cc2c3c(c(N)nc2cn1)C(C)OC3)[C@@H]1COCc2nc(C(F)(F)F)ccc21 (some centres unmarked) [Example 322], the ΔTm at 8 µM falls from 12.6 °C to 10.7 °C.

Going from [2H]C([2H])([2H])NN(C(=O)c1cc2c3c(c(N)nc2cn1)COC3)C1([2H])COCc2c1ccn1c(C(F)(F)F)cnc21 (centres unmarked) [Example 354, 4-Amino-N'-(methyl-d3)-N-(3-(trifluoromethyl)-7,10-dihydro-8H-imidazo[1,2-a]pyrano[3,4-c]pyridin-7-yl-7-d)-1,3-dihydrofuro[3,4-c][1,7]naphthyridine-8-carbohydrazide] to [2H]C([2H])([2H])NN(C(=O)c1cc2c3c(c(N)nc2cn1)C(C)OC3)C1COCc2c1ccn1c(C(F)(F)F)cnc21 (centres unmarked) [Example 362, 4-Amino-3-methyl-N'-(trideuteriomethyl)-N-(3-trifluoromethyl-7,10-dihydro-8H-imidazo[1,2-a]pyrano[3,4-c]pyridin-7-yl)-1,3-dihydrofuro[3,4-c] naphthyridine-8-carbohydrazide], the ΔTm at 8 µM rises from 10.8 °C to 11.2 °C.

Compared with [2H]C([2H])([2H])NN(C(=O)c1cc2c3c(c(N)nc2cc1C)COC3)C1COCc2c1ccn1c(C(F)(F)F)cnc21 (single isomer, unassigned) [Example 357-P1], CNN(C(=O)c1cc2c(cn1)nc(N)c1cncn12)C1COc2cc(S(F)(F)(F)(F)F)ccc21 (single isomer, unassigned) [Example 385-P2] is lower in “ΔTm (°C)” value: 12.45 °C for the first, 12.31 °C for the second.

tested on: not listed separately; test: Pharmacokinetics in rats (plasma) after oral administration; conditions: male, SD, rat, 5 mg/kg
Method: Test Example 4: Determination of the pharmacokinetics of the compounds of the present invention in rats (plasma) after oral administration.
Study objective: SD rats were used as test animals to study the pharmacokinetic behaviour of the following example compounds in rats (plasma) after oral administration at a dose of 5 mg/kg. […] Test scheme 2.1 Test drugs: Vehicle formula: 0.5% CMC-Na (1% Tween 80); the examples of the present invention, prepared in house. 2.2 Test animals: 3 SD rats per group, male, purchased from Shanghai Bikai Keyi Biotechnology Co., Ltd., with animal license number (SCXK (Shanghai) 2018-0006, No.20180006037467). 2.3 Administration: 3 SD rats per group, male, were fasted overnight and then respectively administered PO at a dose of 5 mg/kg and a volume of 10 mL/kg. 2.4 Sample collection: 0.2 mL of blood was collected from the jugular vein of rats before administration and at 0, 0.25, 0.5, 1, 2, 4, 6, 8 and 24 h after administration, and placed in EDTA-K2test tubes, and the test tubes were centrifuged at 6,000 rpm at 4°C for 6 min to separate the plasma, which was stored at -80°C. The animals were fed 4 h after administration. 2.5 Sample treatment • 1) 160 uL of acetonitrile was added to 40 uL of plasma sample for precipitation, and after mixing, the mixture was centrifuged at 3,500 × g for 5-20 minutes. • 2) 100 uL of the treated supernatant solution was taken for LC/MS/MS analysis to determine the concentration of the test compounds. 2.6 Liquid phase analysis • Liquid phase conditions: Shimadzu LC-20AD pump; • Mass spectrometry conditions: AB Sciex API 4000 mass spectrometer; • Chromatographic column: phenomenex Gemiu 5 um C18 50 × 4.6 mm; • Mobile phase: solution A: 0.1% formic acid in water, solution B: methanol; • flow rate: 1.0 mL/min; Elution time: 0-4.0 min, with eluents as follows:
Experimental results and analysis: The main pharmacokinetic parameters were calculated using WinNonlin 8.2.

Molecule Nc1nc2cnc(C(=O)N(N)C3COCc4c3ccn3c(C(F)(F)F)cnc43)cc2c2c1COC2 (centres unmarked) [Example 424, 4-Amino-N-(3-(trifluoromethyl)-7,10-dihydro-8H-imidazo[1,2-a]pyrano[3,4-c]pyridin-7-yl)-1,3-dihydrofuro[3,4-c][1,7]naphthyridine-8-carbohydrazide] has an AUC(0-inf) of 2380 ng·h/mL.

Nc1nc2cnc(C(=O)N(N)C3COCc4c3ccn3c(C(F)(F)F)cnc43)cc2c2c1COC2 (centres unmarked) [Example 424, 4-Amino-N-(3-(trifluoromethyl)-7,10-dihydro-8H-imidazo[1,2-a]pyrano[3,4-c]pyridin-7-yl)-1,3-dihydrofuro[3,4-c][1,7]naphthyridine-8-carbohydrazide] showed a Cmax of 226 ng/mL.

Nc1nc2cnc(C(=O)N(N)C3COCc4c3ccn3c(C(F)(F)F)cnc43)cc2c2c1COC2 (centres unmarked) [Example 424, 4-Amino-N-(3-(trifluoromethyl)-7,10-dihydro-8H-imidazo[1,2-a]pyrano[3,4-c]pyridin-7-yl)-1,3-dihydrofuro[3,4-c][1,7]naphthyridine-8-carbohydrazide] gave an MRT inf of 8.9 h.

For Nc1nc2cnc(C(=O)N(N)C3COCc4c3ccn3c(C(F)(F)F)cnc43)cc2c2c1COC2 (centres unmarked) [Example 424, 4-Amino-N-(3-(trifluoromethyl)-7,10-dihydro-8H-imidazo[1,2-a]pyrano[3,4-c]pyridin-7-yl)-1,3-dihydrofuro[3,4-c][1,7]naphthyridine-8-carbohydrazide], the Tmax was 2.7 h.

For Nc1nc2cnc(C(=O)N(N)C3COCc4c3ccn3c(C(F)(F)F)cnc43)cc2c2c1COC2 (centres unmarked) [Example 424, 4-Amino-N-(3-(trifluoromethyl)-7,10-dihydro-8H-imidazo[1,2-a]pyrano[3,4-c]pyridin-7-yl)-1,3-dihydrofuro[3,4-c][1,7]naphthyridine-8-carbohydrazide], the half-life was 6.1 h.
